Test results taken from PubChem BioAssay (NCI).
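Grown in 96-well plates, cells were treated for 48 hours with each compound at five concentrations. Insufficient inhibition: endpoint recorded as highest concentration tested. Here, GI50 denotes the concentration required for 50% inhibition of growth. TGI marks complete inhibition of growth.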

Experiments:
Assay in all cases: inhibition of tumour cell growth, NCI panel, 48 h
NCI-H23 lung = system: NCI-H23 lung
RXF 393 renal = system: RXF 393 renal
HCC-2998 colon = system: HCC-2998 colon
XF 498 CNS = system: XF 498 CNS
U251 CNS = system: U251 CNS
RPMI-8226 leukemia = system: RPMI-8226 leukemia
HOP-18 NSCLC = system: HOP-18 NSCLC
NCI-H460 lung = system: NCI-H460 lung
UACC-62 melanoma = system: UACC-62 melanoma
A498 renal = system: A498 renal
KM20L2 colon = system: KM20L2 colon
DLD-1 colon = system: DLD-1 colon
OVCAR-5 ovarian = system: OVCAR-5 ovarian
OVCAR-8 ovarian = system: OVCAR-8 ovarian
KM12 colon = system: KM12 colon
SNB-19 CNS = system: SNB-19 CNS
UO-31 renal = system: UO-31 renal
SK-OV-3 ovarian = system: SK-OV-3 ovarian
COLO 205 colon = system: COLO 205 colon
LOX IMVI melanoma = system: LOX IMVI melanoma
ACHN renal = system: ACHN renal
786-0 renal = system: 786-0 renal
MOLT-4 leukemia = system: MOLT-4 leukemia
SF-539 CNS = system: SF-539 CNS
IGROV1 ovarian = system: IGROV1 ovarian
K-562 leukemia = system: K-562 leukemia
HCT-15 colon = system: HCT-15 colon
HL-60(TB) leukemia = system: HL-60(TB) leukemia
EKVX NSCLC = system: EKVX NSCLC
SK-MEL-5 melanoma = system: SK-MEL-5 melanoma
SF-268 CNS = system: SF-268 CNS
TK-10 renal = system: TK-10 renal
CAKI-1 renal = system: CAKI-1 renal
SK-MEL-2 melanoma = system: SK-MEL-2 melanoma
HT29 colon = system: HT29 colon
HOP-62 NSCLC = system: HOP-62 NSCLC
OVCAR-3 ovarian = system: OVCAR-3 ovarian
A549 NSCLC = system: A549 NSCLC
MALME-3M melanoma = system: MALME-3M melanoma
SN12C renal = system: SN12C renal
HOP-92 NSCLC = system: HOP-92 NSCLC
SW-620 colon = system: SW-620 colon
SF-295 CNS = system: SF-295 CNS
SNB-75 CNS = system: SNB-75 CNS
DMS 273 small cell lung = system: DMS 273 small cell lung
SK-MEL-28 melanoma = system: SK-MEL-28 melanoma
NCI-H522 lung = system: NCI-H522 lung
LXFL 529 NSCLC = system: LXFL 529 NSCLC
CCRF-CEM leukemia = system: CCRF-CEM leukemia
OVCAR-4 ovarian = system: OVCAR-4 ovarian
UACC-257 melanoma = system: UACC-257 melanoma
M14 melanoma = system: M14 melanoma
M19-MEL melanoma = system: M19-MEL melanoma

SMILES: NC1CCCCC1N.O=NN1CCCCCC1(P(=O)([O-])[O-])P(=O)([O-])[O-].[Na+].[Pt+2]
- GI50 (NCI-H23 lung): > 100 µM
- TGI (NCI-H23 lung): > 100 µM
- GI50 (RXF 393 renal): > 100 µM
- TGI (RXF 393 renal): > 100 µM
- GI50 (HCC-2998 colon): > 100 µM
- TGI (HCC-2998 colon): > 100 µM
- GI50 (XF 498 CNS): > 100 µM
- TGI (XF 498 CNS): > 100 µM
- GI50 (U251 CNS): > 100 µM
- TGI (U251 CNS): > 100 µM
- GI50 (RPMI-8226 leukemia): > 100 µM
- TGI (RPMI-8226 leukemia): > 100 µM
- GI50 (HOP-18 NSCLC): > 100 µM
- TGI (HOP-18 NSCLC): > 100 µM
- GI50 (NCI-H460 lung): > 100 µM
- TGI (NCI-H460 lung): > 100 µM
- GI50 (UACC-62 melanoma): > 100 µM
- TGI (UACC-62 melanoma): > 100 µM
- GI50 (A498 renal): > 100 µM
- TGI (A498 renal): > 100 µM
- GI50 (KM20L2 colon): > 100 µM
- TGI (KM20L2 colon): > 100 µM
- GI50 (DLD-1 colon): > 100 µM
- TGI (DLD-1 colon): > 100 µM
- GI50 (OVCAR-5 ovarian): > 100 µM
- TGI (OVCAR-5 ovarian): > 100 µM
- GI50 (OVCAR-8 ovarian): > 100 µM
- TGI (OVCAR-8 ovarian): > 100 µM
- GI50 (KM12 colon): > 100 µM
- TGI (KM12 colon): > 100 µM
- GI50 (SNB-19 CNS): > 100 µM
- TGI (SNB-19 CNS): > 100 µM
- GI50 (UO-31 renal): > 100 µM
- TGI (UO-31 renal): > 100 µM
- GI50 (SK-OV-3 ovarian): > 100 µM
- TGI (SK-OV-3 ovarian): > 100 µM
- GI50 (COLO 205 colon): > 100 µM
- TGI (COLO 205 colon): > 100 µM
- GI50 (LOX IMVI melanoma): > 100 µM
- TGI (LOX IMVI melanoma): > 100 µM
- GI50 (ACHN renal): > 100 µM
- TGI (ACHN renal): > 100 µM
- GI50 (786-0 renal): > 100 µM
- TGI (786-0 renal): > 100 µM
- GI50 (MOLT-4 leukemia): > 100 µM
- TGI (MOLT-4 leukemia): > 100 µM
- GI50 (SF-539 CNS): > 100 µM
- TGI (SF-539 CNS): > 100 µM
- GI50 (IGROV1 ovarian): > 100 µM
- TGI (IGROV1 ovarian): > 100 µM
- GI50 (K-562 leukemia): > 100 µM
- TGI (K-562 leukemia): > 100 µM
- GI50 (HCT-15 colon): > 100 µM
- TGI (HCT-15 colon): > 100 µM
- GI50 (HL-60(TB) leukemia): > 100 µM
- TGI (HL-60(TB) leukemia): > 100 µM
- GI50 (EKVX NSCLC): > 100 µM
- TGI (EKVX NSCLC): > 100 µM
- GI50 (SK-MEL-5 melanoma): > 100 µM
- TGI (SK-MEL-5 melanoma): > 100 µM
- GI50 (SF-268 CNS): > 100 µM
- TGI (SF-268 CNS): > 100 µM
- GI50 (TK-10 renal): > 100 µM
- TGI (TK-10 renal): > 100 µM
- GI50 (CAKI-1 renal): > 100 µM
- TGI (CAKI-1 renal): > 100 µM
- GI50 (SK-MEL-2 melanoma): > 100 µM
- TGI (SK-MEL-2 melanoma): > 100 µM
- GI50 (HT29 colon): > 100 µM
- TGI (HT29 colon): > 100 µM
- GI50 (HOP-62 NSCLC): > 100 µM
- TGI (HOP-62 NSCLC): > 100 µM
- GI50 (OVCAR-3 ovarian): > 100 µM
- TGI (OVCAR-3 ovarian): > 100 µM
- GI50 (A549 NSCLC): > 100 µM
- TGI (A549 NSCLC): > 100 µM
- GI50 (MALME-3M melanoma): > 100 µM
- TGI (MALME-3M melanoma): > 100 µM
- GI50 (SN12C renal): > 100 µM
- TGI (SN12C renal): > 100 µM
- GI50 (HOP-92 NSCLC): > 100 µM
- TGI (HOP-92 NSCLC): > 100 µM
- GI50 (SW-620 colon): > 100 µM
- TGI (SW-620 colon): > 100 µM
- GI50 (SF-295 CNS): > 100 µM
- TGI (SF-295 CNS): > 100 µM
- GI50 (SNB-75 CNS): 96.9 µM
- TGI (SNB-75 CNS): > 100 µM
- GI50 (DMS 273 small cell lung): > 100 µM
- TGI (DMS 273 small cell lung): > 100 µM
- GI50 (SK-MEL-28 melanoma): > 100 µM
- TGI (SK-MEL-28 melanoma): > 100 µM
- GI50 (NCI-H522 lung): > 100 µM
- TGI (NCI-H522 lung): > 100 µM
- GI50 (LXFL 529 NSCLC): > 100 µM
- TGI (LXFL 529 NSCLC): > 100 µM
- GI50 (CCRF-CEM leukemia): > 100 µM
- TGI (CCRF-CEM leukemia): > 100 µM
- GI50 (OVCAR-4 ovarian): > 100 µM
- TGI (OVCAR-4 ovarian): > 100 µM
- GI50 (UACC-257 melanoma): > 100 µM
- TGI (UACC-257 melanoma): > 100 µM
- GI50 (M14 melanoma): > 100 µM
- TGI (M14 melanoma): > 100 µM

SMILES: CC(NS(=O)(=O)c1ccc(Cl)cc1)C(=O)O (stereo not given)
- TGI (NCI-H23 lung): > 100 µM
- TGI (RXF 393 renal): > 100 µM
- TGI (XF 498 CNS): > 100 µM
- TGI (U251 CNS): > 100 µM
- TGI (RPMI-8226 leukemia): > 100 µM
- TGI (M19-MEL melanoma): > 100 µM
- TGI (HOP-18 NSCLC): > 100 µM
- TGI (NCI-H460 lung): > 100 µM
- TGI (UACC-62 melanoma): > 100 µM
- TGI (A498 renal): > 100 µM
- TGI (KM20L2 colon): > 100 µM
- TGI (DLD-1 colon): > 100 µM
- TGI (OVCAR-5 ovarian): > 100 µM
- TGI (OVCAR-8 ovarian): > 100 µM
- TGI (KM12 colon): > 100 µM
- TGI (SNB-19 CNS): > 100 µM
- TGI (UO-31 renal): > 100 µM
- TGI (SK-OV-3 ovarian): > 100 µM
- TGI (COLO 205 colon): > 100 µM
- TGI (LOX IMVI melanoma): > 100 µM
- TGI (ACHN renal): > 100 µM
- TGI (786-0 renal): > 100 µM
- TGI (MOLT-4 leukemia): > 100 µM
- TGI (SF-539 CNS): > 100 µM
- TGI (IGROV1 ovarian): > 100 µM
- TGI (K-562 leukemia): > 100 µM
- TGI (HCT-15 colon): > 100 µM
- TGI (HL-60(TB) leukemia): > 100 µM
- TGI (EKVX NSCLC): > 100 µM
- TGI (SK-MEL-5 melanoma): > 100 µM
- TGI (SF-268 CNS): > 100 µM
- TGI (TK-10 renal): > 100 µM
- TGI (CAKI-1 renal): > 100 µM
- TGI (SK-MEL-2 melanoma): > 100 µM
- TGI (HT29 colon): > 100 µM
- TGI (OVCAR-3 ovarian): > 100 µM
- TGI (A549 NSCLC): > 100 µM
- TGI (MALME-3M melanoma): > 100 µM
- TGI (SN12C renal): > 100 µM
- TGI (HOP-92 NSCLC): > 100 µM
- TGI (SW-620 colon): > 100 µM
- TGI (SF-295 CNS): > 100 µM
- TGI (SNB-75 CNS): > 100 µM
- TGI (DMS 273 small cell lung): > 100 µM
- TGI (SK-MEL-28 melanoma): > 100 µM
- TGI (NCI-H522 lung): > 100 µM
- TGI (LXFL 529 NSCLC): > 100 µM
- TGI (CCRF-CEM leukemia): > 100 µM
- TGI (OVCAR-4 ovarian): > 100 µM
- TGI (UACC-257 melanoma): > 100 µM
- TGI (M14 melanoma): > 100 µM
